Results reported in paper PMC8301576 (Clinical and Translational Science, 2021).
Several values for one entry are separate records, joined by “and”; a condition that tells them apart may be missing. Equal values may be shown once. Read-outs that look alike come from different tables or passages of the source.

Legend:
OAT3 = target: T1, OAT3 (Homo sapiens, UniProt Q8TCC7); test: Trial 2: clinical DDI, furosemide in presence of DM-4103 vs furosemide alone; format: in vivo; conditions: at clinically relevant concentrations
T1 sequence (Q8TCC7 1-542): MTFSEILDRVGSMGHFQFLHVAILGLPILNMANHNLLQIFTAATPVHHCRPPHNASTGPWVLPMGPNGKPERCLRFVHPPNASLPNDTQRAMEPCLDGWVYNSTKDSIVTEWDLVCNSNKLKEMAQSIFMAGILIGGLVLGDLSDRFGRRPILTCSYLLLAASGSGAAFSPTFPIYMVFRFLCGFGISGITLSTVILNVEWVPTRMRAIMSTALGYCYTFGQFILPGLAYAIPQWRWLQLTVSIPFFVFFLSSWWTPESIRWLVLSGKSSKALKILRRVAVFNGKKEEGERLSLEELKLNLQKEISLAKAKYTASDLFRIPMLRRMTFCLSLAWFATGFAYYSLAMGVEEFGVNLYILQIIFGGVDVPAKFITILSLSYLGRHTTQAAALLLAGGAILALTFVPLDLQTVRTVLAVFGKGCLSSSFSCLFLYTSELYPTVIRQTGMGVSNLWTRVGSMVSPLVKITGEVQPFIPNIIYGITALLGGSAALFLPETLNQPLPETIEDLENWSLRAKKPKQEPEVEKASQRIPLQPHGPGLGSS

[1] = Trial 1: plasma pharmacokinetics in healthy subjects; format: in vivo, human
OATP1B1 = target: T2, OATP1B1 (Homo sapiens, UniProt Q9Y6L6); format: in vivo
T2 sequence (Q9Y6L6 1-691): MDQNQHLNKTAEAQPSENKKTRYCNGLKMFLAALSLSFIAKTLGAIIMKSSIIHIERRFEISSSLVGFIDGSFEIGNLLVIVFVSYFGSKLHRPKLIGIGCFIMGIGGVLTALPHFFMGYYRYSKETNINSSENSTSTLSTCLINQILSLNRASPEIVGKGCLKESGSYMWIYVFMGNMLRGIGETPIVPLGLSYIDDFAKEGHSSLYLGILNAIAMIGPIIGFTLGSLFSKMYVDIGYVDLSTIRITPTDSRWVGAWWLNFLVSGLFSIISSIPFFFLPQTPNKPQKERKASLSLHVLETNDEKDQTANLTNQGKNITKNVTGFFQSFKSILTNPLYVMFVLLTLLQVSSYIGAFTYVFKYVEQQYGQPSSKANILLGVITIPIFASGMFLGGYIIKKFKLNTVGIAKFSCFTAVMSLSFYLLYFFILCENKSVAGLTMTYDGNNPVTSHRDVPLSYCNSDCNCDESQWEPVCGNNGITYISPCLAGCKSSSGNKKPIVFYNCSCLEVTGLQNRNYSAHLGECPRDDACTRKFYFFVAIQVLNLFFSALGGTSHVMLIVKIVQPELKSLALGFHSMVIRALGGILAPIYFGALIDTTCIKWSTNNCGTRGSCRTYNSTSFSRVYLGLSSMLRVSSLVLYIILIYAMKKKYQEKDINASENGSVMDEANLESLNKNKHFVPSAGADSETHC

[2] = cited from earlier work
[3] = Earlier clinical data on TLV and DM-4103; format: in vivo, human; conditions: from elimination half-life
Plasma protein binding = format: in vitro ADME
[4] = Trial 2: plasma pharmacokinetics in healthy subjects; format: in vivo, human; conditions: 48 h postdose after 7 days 300 mg TLV q.d.
[5] = Trial 2: treatment-emergent adverse events; format: in vivo, human
[6] = system: sodium‐dependent taurocholate co‐transporting polypeptide (NTCP); conditions: cited from earlier work
[7] = Trial 1: treatment-emergent adverse events; format: in vivo, human
BCRP [8] = target: T3, BCRP (Homo sapiens, UniProt Q9UNQ0); test: Trial 1: clinical DDI, rosuvastatin with TLV vs rosuvastatin alone; format: in vivo
T3 sequence (Q9UNQ0 1-655): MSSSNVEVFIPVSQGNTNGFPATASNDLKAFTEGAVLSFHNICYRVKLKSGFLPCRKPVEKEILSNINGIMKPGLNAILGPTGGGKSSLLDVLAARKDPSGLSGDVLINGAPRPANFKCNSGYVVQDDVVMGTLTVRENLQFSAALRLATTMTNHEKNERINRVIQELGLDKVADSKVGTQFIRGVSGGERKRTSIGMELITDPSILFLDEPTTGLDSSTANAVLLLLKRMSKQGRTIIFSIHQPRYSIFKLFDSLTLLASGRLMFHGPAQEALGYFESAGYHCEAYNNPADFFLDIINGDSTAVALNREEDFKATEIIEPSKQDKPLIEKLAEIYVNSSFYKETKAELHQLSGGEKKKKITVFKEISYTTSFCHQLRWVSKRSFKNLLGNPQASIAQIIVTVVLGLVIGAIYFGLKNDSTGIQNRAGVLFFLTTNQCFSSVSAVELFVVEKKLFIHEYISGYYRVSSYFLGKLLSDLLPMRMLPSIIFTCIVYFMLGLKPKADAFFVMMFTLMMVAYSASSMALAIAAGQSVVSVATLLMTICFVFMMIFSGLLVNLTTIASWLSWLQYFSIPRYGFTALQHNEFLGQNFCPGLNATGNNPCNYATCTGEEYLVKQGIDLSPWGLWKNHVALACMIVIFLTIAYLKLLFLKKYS

BCRP [9] = target: T3, BCRP; test: Prazosin transport in MDCKII BCRP expressing cells; conditions: 90-mg TLV dose (200 µmol) assumed completely soluble in 250 ml
[10] = system: sandwich‐cultured human hepatocytes; conditions: cited from earlier work
[11] = cited from earlier work; for Solubility: pH independent
[12] = predicted; cited from earlier work
[13] = rosuvastatin + 90 mg tolvaptan vs rosuvastatin alone, n = 14
[14] = trial 1, period 3 (TLV alone, 300 mg q.d.)
[15] = trial 2, period 2 (TLV alone, 300 mg q.d.)

Cc1ccccc1C(=O)Nc1ccc(C(=O)Nc2ccc(Cl)cc2C(=O)CCC(=O)O)c(C)c1 [DM‐4103]
Clinical inhibition of OAT3 (OAT3): not an inhibitor
Plasma concentration, mean (SD) ([1]; trial 1, 48 h postdose after 7 days 300 mg TLV q.d.): 7240 (1880) ng/ml
Clinical inhibition of OATP1B1 (OATP1B1; at clinically relevant concentrations): not an inhibitor
Mean steady-state plasma concentration ([2]; 90 + 30 mg TLV regimen in subjects with ADPKD, ref data on file): ~ 7500 ng/ml and ~15.7 µM
Elimination half-life [2]: ~ 180 h
Plasma concentrations ([2]; first 2 h following a 90 mg TLV dose, ref data on file): less than 100 ng/ml
Time to steady-state concentrations after start of TLV dosing [3]: ~ 8 weeks
Plasma protein binding (Plasma protein binding): greater than 99.8%
Plasma concentration, mean (SD) [4]: 6430 (2030) ng/ml

NS(=O)(=O)c1cc(C(=O)O)c(NCc2ccco2)cc1Cl [Furosemide, furosemide]
TEAE incidence: polyuria ([5]; trial 2, period 1 (furosemide alone)): 64.3%
TEAE incidence: headache ([5]; trial 2, period 3 (furosemide in presence of DM-4103)): 21.4%

CC(C)c1nc(N(C)S(C)(=O)=O)nc(-c2ccc(F)cc2)c1/C=C/[C@@H](O)C[C@@H](O)CC(=O)O [ROS, rosuvastatin]
Share of rosuvastatin uptake accounted for by NTCP alone ([6]; human hepatocyte studies): ~ 35%
Tmax ([1]; 5 mg ROS alone, median (minimum-maximum)): 3.50 (2.00–6.00) h
AUC(0-inf) ([1]; human, plasma, oral, 5 mg, AUC∞, 5 mg ROS alone, minimum-maximum, n = 7): 20.3 to 36 ng·h/mL
CL/F ([1]; human, plasma, oral, 5 mg, CL/F, 5 mg ROS alone, minimum-maximum, n = 7): 28.5 to 68.2 mL/min/kg
half-life ([1]; human, plasma, oral, 5 mg, t1/2,z, 5 mg ROS alone, minimum-maximum, n = 7): 2.4 to 4.3 h
TEAE incidence: nausea ([7]; trial 1, period 1 (rosuvastatin)): 12.5%
TEAE incidence: headache ([7]; trial 1, period 3 (rosuvastatin in presence of DM-4103)): 14.3%
Geometric mean ratio (90% CI), AUC∞ (OATP1B1; rosuvastatin in presence of DM-4103 vs rosuvastatin alone, n = 5): 0.998^b 0.876–1.138
Geometric mean ratio (90% CI), AUC∞ (BCRP [8]; rosuvastatin + 90 mg tolvaptan vs rosuvastatin alone, n = 6): 1.281^a 1.148–1.429
Geometric mean ratio (90% CI), AUCt (BCRP [8]; [13]): 1.69
Geometric mean ratio (90% CI), Cmax (BCRP [8]; [13]): 1.54

Cc1ccccc1C(=O)Nc1ccc(C(=O)N2CCCC(O)c3cc(Cl)ccc32)c(C)c1 (stereo not shown) [TLV, Tolvaptan]
NTCP inhibition ([6]; IC50 value higher than Cmax): inhibitor of NTCP
TEAE incidence: constipation [7, 14]: 14.3%
TEAE incidence: dry mouth [7, 14]: 14.3%
TEAE incidence: nausea [7, 14]: 21.4%
TEAE incidence: pollakiuria [7, 14]: 71.4%
Predicted concentration of dose in 250 ml (Igut) (BCRP [9]): 800 µM
Safety and tolerability ([2]; 300 mg TLV for 5 days, healthy subjects): safe and well‐tolerated
half-life [2]: about 3.5 h
TEAE incidence: constipation [5, 15]: 14.3%
TEAE incidence: dizziness [5, 15]: 14.3%
TEAE incidence: dry mouth [5, 15]: 21.4%
TEAE incidence: headache [5, 15]: 14.3%
TEAE incidence: insomnia [5, 15]: 14.3%
TEAE incidence: polyuria [5, 15]: 100%
TEAE incidence: thirst [5, 15]: 92.9%
Accumulation in sandwich-cultured human hepatocytes [10]: at least 10 fold
Increase of in vitro solubility by spray-dried formulation ([11]; TLV tablets, spray-dried technique): up to sevenfold
Solubility [11]: ~ 0.01 g/250 ml
Solubility ([11]; in Discussion): about 0.01 mg/250 ml and ~ 0.09 µM
Liver:blood ratio [12]: 38.76
Clinical inhibition of BCRP (BCRP [8]; 90 mg TLV with 5 mg rosuvastatin calcium): No clinically relevant inhibition
